Active and inactive are the calls of the source. Rule as the data show it, for most assays here: actives have a measured EC50 and inactives only a lower limit.
Tested on: Streptococcus sp. 'group A'
Assay: Streptococcus pyogenes SK(-)GAS viability under kanamycin – luminescence, BacTiterGlo, confirmation, counter-screen for streptokinase expression inhibitor project, dose response (AID 1900)
Assay type: functional, organism-based

Structure (SMILES) | EC50
Cc1cc(N2C(=O)C(O)=C(C(=O)c3cc4ccccc4o3)C2c2cccc(Cl)c2)no1 (configuration not stated) | 2.09 µM (active)
Cc1ccc(N=C(S)c2nc3ccccc3[nH]2)c(C)c1 | 2.12 µM (active)
O=C(NC(=S)NNC(=O)[C@H]1C[C@@H]1c1ccccc1)c1ccc(F)cc1 | 0.775 µM (active)
Cc1nc(Nc2nc(O)cc(-c3ccccc3)n2)nc2ccccc12 | 4.95 µM (active)
CC(C)c1ccc(C(=O)NC(=S)Nc2ccc3[nH]c(O)nc3c2)cc1 | 10.2 µM (active)
COc1ccc(C(=O)CSc2nc(O)cc(C(F)(F)F)c2C#N)cc1 | 3.58 µM (active)
Cc1cc(C)cc(C(=O)Nc2nc3ccccc3[nH]2)c1 | 10.6 µM (active)
O=C(N/N=C/c1cc(Br)cc([N+](=O)[O-])c1O)c1ccc(NC(=O)c2ccc(F)cc2)cc1 | 2.34 µM (active)

Tested on: not listed separately
Assay: Trypanosoma cruzi growth suppression in host cells – NIH3T3 host cells, beta-gal luminescence, confirmation (AID 2044);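 also: intracellular parasites grown in NIH/3T3 mouse fibroblasts as host cells; luminescent beta-galactosidase reporter signal from transgenic T. cruzi replicating inside host cells; inhibitors lower the luminescence signal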
Assay type: functional, cell-based

Structure (SMILES) | EC50
Cc1ccn2c(Nc3ccccc3C)c(-c3ccncc3)nc2c1 | 0.56 µM (active)
CC(O)CNc1nc2sc3c(c2c(=O)n1CCc1ccccc1)CCCCC3 (configuration not stated) | 1.89 µM (active)
Cc1ccc(SCc2ccc(C(=O)Nc3cccc([N+](=O)[O-])c3C)cc2)cc1 | 1.67 µM (active)
O=C(Cn1cnc([N+](=O)[O-])n1)NCc1ccccc1 | 0.479 µM (active)
O=[N+]([O-])c1ccc(N2CCN(S(=O)(=O)c3ccc(Cl)c(Cl)c3)CC2)cc1NCCN1CCOCC1 | 1.68 µM (active)
O=C(NCc1ccc2c(c1)OCO2)c1ccc(N2CCCCCC2)c([N+](=O)[O-])c1 | 0.709 µM (active)
Cc1cc(C)c(C#N)c(SCc2nnc(-c3ccccc3[N+](=O)[O-])o2)n1 | 2.2 µM (active)
O=c1c2c3c(sc2n(CCN2CCCC2)c(=O)n1Cc1ccco1)CCCCC3 | 0.331 µM (active)
CN(C)CCC1CCN(c2cc(C#N)c(C#N)cc2[N+](=O)[O-])CC1 | 0.345 µM (active)
CC1CN(c2nc3ccccc3nc2C(C#N)C(=O)OC2CCCCC2)CC(C)O1 (configuration not stated) | 1.15 µM (active)
O=C(CN(c1ccc(Br)cc1)S(=O)(=O)c1ccc(Cl)c([N+](=O)[O-])c1)NCCc1ccccc1 | 0.592 µM (active)
O=C(NC1CCCC1)C(c1ccncc1)N(Cc1ccco1)C(=O)c1ccc(-c2ccccc2)[nH]1 (configuration not stated) | 0.641 µM (active)
COc1ccc([N+](=O)[O-])cc1NC(=O)COC(=O)C1CC1 | > 60 µM (not active)
CCOC(=O)C1(Cc2ccccc2)CCN(Cc2cnc(N3CCOCC3)s2)CC1 | 0.644 µM (active)
O=C(Nc1nc(-c2ccco2)c(-c2ccco2)s1)c1cnccn1 | 5.79 µM (active)

Tested on: not listed separately
Assay: NIH3T3 cell viability loss – ATP luminescence, mouse fibroblasts, counter-screen, dose response (AID 2010);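 also: cells exposed to compound for about 90 hours before reading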
Assay type: functional, cell-based

Structure (SMILES) | EC50
Cc1ccn2c(Nc3ccccc3C)c(-c3ccncc3)nc2c1 | > 60 µM (not active)
CC(O)CNc1nc2sc3c(c2c(=O)n1CCc1ccccc1)CCCCC3 (configuration not stated) | > 60 µM (not active)
Cc1ccc(SCc2ccc(C(=O)Nc3cccc([N+](=O)[O-])c3C)cc2)cc1 | > 30 µM (not active)
O=C(Cn1cnc([N+](=O)[O-])n1)NCc1ccccc1 | > 60 µM (not active)
O=[N+]([O-])c1ccc(N2CCN(S(=O)(=O)c3ccc(Cl)c(Cl)c3)CC2)cc1NCCN1CCOCC1 | > 60 µM (not active)
O=C(NCc1ccc2c(c1)OCO2)c1ccc(N2CCCCCC2)c([N+](=O)[O-])c1 | > 60 µM (not active)
Cc1cc(C)c(C#N)c(SCc2nnc(-c3ccccc3[N+](=O)[O-])o2)n1 | > 60 µM (not active)
O=c1c2c3c(sc2n(CCN2CCCC2)c(=O)n1Cc1ccco1)CCCCC3 | > 30 µM (not active)
CN(C)CCC1CCN(c2cc(C#N)c(C#N)cc2[N+](=O)[O-])CC1 | > 60 µM (not active)
CC1CN(c2nc3ccccc3nc2C(C#N)C(=O)OC2CCCCC2)CC(C)O1 (configuration not stated) | 10.6 µM (active)
O=C(CN(c1ccc(Br)cc1)S(=O)(=O)c1ccc(Cl)c([N+](=O)[O-])c1)NCCc1ccccc1 | > 60 µM (not active)
O=C(NC1CCCC1)C(c1ccncc1)N(Cc1ccco1)C(=O)c1ccc(-c2ccccc2)[nH]1 (configuration not stated) | > 30 µM (not active)
COc1ccc([N+](=O)[O-])cc1NC(=O)COC(=O)C1CC1 | > 60 µM (inconclusive)
CCOC(=O)C1(Cc2ccccc2)CCN(Cc2cnc(N3CCOCC3)s2)CC1 | > 60 µM (inconclusive)
O=C(Nc1nc(-c2ccco2)c(-c2ccco2)s1)c1cnccn1 | 8.94 µM (active)

Tested on: Streptococcus
Assay: GAS UMAA2166 growth inhibition – luminescence, BacTiterGlo, counter-screen for streptokinase expression inhibitor project, dose response (AID 1915);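 also: potency for reduction of bacterial viability or growth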
Assay type: functional, organism-based

Structure (SMILES) | EC50
Cc1cc(N2C(=O)C(O)=C(C(=O)c3cc4ccccc4o3)C2c2cccc(Cl)c2)no1 (configuration not stated) | 5.36 µM (active)
Cc1ccc(N=C(S)c2nc3ccccc3[nH]2)c(C)c1 | > 150 µM (not active)
O=C(NC(=S)NNC(=O)[C@H]1C[C@@H]1c1ccccc1)c1ccc(F)cc1 | 1.87 µM (active)
Cc1nc(Nc2nc(O)cc(-c3ccccc3)n2)nc2ccccc12 | 8.02 µM (active)
CC(C)c1ccc(C(=O)NC(=S)Nc2ccc3[nH]c(O)nc3c2)cc1 | 53.6 µM (active)
COc1ccc(C(=O)CSc2nc(O)cc(C(F)(F)F)c2C#N)cc1 | 15.4 µM (active)
Cc1cc(C)cc(C(=O)Nc2nc3ccccc3[nH]2)c1 | 7.31 µM (active)
O=C(N/N=C/c1cc(Br)cc([N+](=O)[O-])c1O)c1ccc(NC(=O)c2ccc(F)cc2)cc1 | 6.54 µM (active)

Biological target: T1, Replicative DNA helicase DnaB (Mycobacterium tuberculosis, UniProt P9WMR3)
T1 sequence (P9WMR3 whole entry): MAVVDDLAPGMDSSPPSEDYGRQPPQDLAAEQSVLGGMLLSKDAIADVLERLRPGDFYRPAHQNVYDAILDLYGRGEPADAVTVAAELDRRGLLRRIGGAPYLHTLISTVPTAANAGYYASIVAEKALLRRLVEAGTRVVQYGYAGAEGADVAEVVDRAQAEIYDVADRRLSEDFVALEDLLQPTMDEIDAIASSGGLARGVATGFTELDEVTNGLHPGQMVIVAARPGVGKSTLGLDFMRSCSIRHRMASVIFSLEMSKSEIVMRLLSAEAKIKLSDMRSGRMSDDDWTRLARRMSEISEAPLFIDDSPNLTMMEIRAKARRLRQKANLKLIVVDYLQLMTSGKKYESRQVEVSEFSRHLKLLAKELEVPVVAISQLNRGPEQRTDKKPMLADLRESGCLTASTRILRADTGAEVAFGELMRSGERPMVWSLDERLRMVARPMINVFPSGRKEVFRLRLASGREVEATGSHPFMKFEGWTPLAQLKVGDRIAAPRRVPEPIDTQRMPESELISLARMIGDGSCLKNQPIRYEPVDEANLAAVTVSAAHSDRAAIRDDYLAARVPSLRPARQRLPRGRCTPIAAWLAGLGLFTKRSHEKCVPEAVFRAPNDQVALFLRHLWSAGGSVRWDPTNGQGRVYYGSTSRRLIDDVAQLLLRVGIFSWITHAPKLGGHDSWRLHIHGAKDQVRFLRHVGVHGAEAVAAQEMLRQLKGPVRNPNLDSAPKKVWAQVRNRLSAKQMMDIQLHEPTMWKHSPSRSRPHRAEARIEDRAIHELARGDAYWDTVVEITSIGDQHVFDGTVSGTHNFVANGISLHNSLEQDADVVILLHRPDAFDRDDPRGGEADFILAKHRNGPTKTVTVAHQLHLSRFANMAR
Assay: DnaB intein splicing inhibitors, dose response, biochemical, cell-free fluorescence (AID 449749)
Assay type: functional

Structure (SMILES) | AC50
FC(F)(F)c1cccc(Oc2nc(-c3ccccc3)nnc2C(F)(F)F)c1 | 2.06 µM (active)
CCC1C(=O)N(c2nc(C)cc(C)n2)N=C1C (configuration not stated) | 8.34 µM (active)
CC1=NN(Cc2ccccc2)C(=O)C1C(c1ccncc1)C(C#N)C#N (configuration not stated) | 9.46 µM (active)
COc1cc(/C=C/C(=O)OCC(=O)Nc2ccccc2Sc2ccc(Cl)cc2)ccc1O | > 380 µM (inactive)
C#CCOC(=O)c1ccccc1C(=O)n1nnc2ccccc21 | 6.81 µM (active)
O=C(CC[S+]([O-])NCc1ccccc1)NCc1ccccc1 (configuration not stated) | > 380 µM (inactive)
CCN1C(=O)c2c(C)nc3ccccc3c2C1=O | 43.4 µM (active)
CN1CCN(C2=C(Cl)C(=O)N(c3ccc(Cl)cc3)C2=O)CC1 | 1.07 µM (active)
CN1CCc2nc(SCC(=O)Nc3ccc(OC(F)(F)F)cc3)c(C#N)c(-c3cccs3)c2C1 | > 380 µM (inactive)
CCOc1ccccc1Oc1coc2cc(OC(=O)c3ccco3)ccc2c1=O | > 380 µM (inactive)
Cn1[nH]c(CSc2ccc(Cl)cc2)cc1=O | 20.2 µM (active)
C/C(CC(=O)Nc1ccccn1)=N\NC(=O)Cc1cccc2ccccc12 | 3.54 µM (active)
CCC(=O)N/N=C(\C)CC(=O)Nc1cccc([N+](=O)[O-])c1 | 23.4 µM (active)

Biological target: T2, Protein RecA (Mycobacterium tuberculosis, UniProt P9WHJ3)
T2 sequence (P9WHJ3 whole entry): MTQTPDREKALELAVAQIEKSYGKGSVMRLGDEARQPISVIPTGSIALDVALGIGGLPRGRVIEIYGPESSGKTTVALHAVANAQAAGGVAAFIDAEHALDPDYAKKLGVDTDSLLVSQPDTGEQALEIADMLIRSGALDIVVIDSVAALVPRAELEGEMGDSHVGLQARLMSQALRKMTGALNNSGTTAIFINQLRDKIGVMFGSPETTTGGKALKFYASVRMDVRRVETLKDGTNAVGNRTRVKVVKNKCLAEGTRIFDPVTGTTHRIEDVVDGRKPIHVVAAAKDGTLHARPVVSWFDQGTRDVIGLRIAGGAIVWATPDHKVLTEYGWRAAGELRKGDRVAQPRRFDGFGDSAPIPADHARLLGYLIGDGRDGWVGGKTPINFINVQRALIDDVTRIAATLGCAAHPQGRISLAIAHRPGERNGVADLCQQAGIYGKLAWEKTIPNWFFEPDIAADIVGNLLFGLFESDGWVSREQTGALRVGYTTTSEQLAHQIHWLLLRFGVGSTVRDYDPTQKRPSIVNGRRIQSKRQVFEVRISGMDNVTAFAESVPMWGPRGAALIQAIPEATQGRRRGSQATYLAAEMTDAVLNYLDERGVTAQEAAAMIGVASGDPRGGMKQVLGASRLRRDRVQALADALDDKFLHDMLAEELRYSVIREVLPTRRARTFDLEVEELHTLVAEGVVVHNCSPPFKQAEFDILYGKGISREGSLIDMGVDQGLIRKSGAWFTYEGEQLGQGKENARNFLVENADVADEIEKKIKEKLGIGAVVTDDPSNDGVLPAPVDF
Assay: Fluorescence Cell-Free Homogeneous Dose Retest to Identify Inhibitors of RecA-Intein Splicing Activity. [Related pubchem assays (depositor defined):AID2097, AID2223, AID489010, AID492950]
Assay type: functional

Structure (SMILES) | EC50
FC(F)(F)c1cccc(Oc2nc(-c3ccccc3)nnc2C(F)(F)F)c1 | 0.76 µM (active)
CCC1C(=O)N(c2nc(C)cc(C)n2)N=C1C (configuration not stated) | 3.3 µM (active)
CC1=NN(Cc2ccccc2)C(=O)C1C(c1ccncc1)C(C#N)C#N (configuration not stated) | 3.52 µM (active)
COc1cc(/C=C/C(=O)OCC(=O)Nc2ccccc2Sc2ccc(Cl)cc2)ccc1O | 3.62 µM (active)
C#CCOC(=O)c1ccccc1C(=O)n1nnc2ccccc21 | 8.84 µM (active)
O=C(CC[S+]([O-])NCc1ccccc1)NCc1ccccc1 (configuration not stated) | > 380 µM (inactive)
CCN1C(=O)c2c(C)nc3ccccc3c2C1=O | 0.781 µM (active)
CN1CCN(C2=C(Cl)C(=O)N(c3ccc(Cl)cc3)C2=O)CC1 | 0.247 µM (active)
CN1CCc2nc(SCC(=O)Nc3ccc(OC(F)(F)F)cc3)c(C#N)c(-c3cccs3)c2C1 | 2.33 µM (active)
CCOc1ccccc1Oc1coc2cc(OC(=O)c3ccco3)ccc2c1=O | 35.7 µM (active)
N#CC1=C(N)Oc2[nH]nc(-c3cccs3)c2C1c1cccnc1 (configuration not stated) | > 380 µM (inactive)
Cn1[nH]c(CSc2ccc(Cl)cc2)cc1=O | 10 µM (active)
C/C(CC(=O)Nc1ccccn1)=N\NC(=O)Cc1cccc2ccccc12 | 2.73 µM (active)
CCC(=O)N/N=C(\C)CC(=O)Nc1cccc([N+](=O)[O-])c1 | 2.36 µM (active)

Biological target: Cytochrome P450 2C9 (Homo sapiens, UniProt P11712)
Sequence (P11712 whole entry): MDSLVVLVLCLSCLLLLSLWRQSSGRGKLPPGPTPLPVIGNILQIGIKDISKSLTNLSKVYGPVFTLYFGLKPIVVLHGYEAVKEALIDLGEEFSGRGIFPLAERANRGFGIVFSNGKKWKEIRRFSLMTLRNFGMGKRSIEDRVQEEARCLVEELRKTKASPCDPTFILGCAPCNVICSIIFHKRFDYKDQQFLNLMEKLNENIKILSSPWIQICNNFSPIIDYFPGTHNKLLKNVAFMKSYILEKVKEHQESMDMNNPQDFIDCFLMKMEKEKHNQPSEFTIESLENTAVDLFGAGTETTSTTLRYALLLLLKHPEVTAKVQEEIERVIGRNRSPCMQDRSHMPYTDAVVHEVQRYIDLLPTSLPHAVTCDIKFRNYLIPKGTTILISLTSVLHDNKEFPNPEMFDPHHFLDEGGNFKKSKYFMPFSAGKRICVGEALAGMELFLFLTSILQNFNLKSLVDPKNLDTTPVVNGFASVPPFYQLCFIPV

Structure (SMILES) | AC50
CN(C)[C@@H]1C(O)=C(C(N)=O)C(=O)[C@]2(O)C(O)=C3C(=O)c4c(O)cccc4[C@@](C)(O)[C@H]3[C@H](O)[C@@H]12 | 5.01 µM (inconclusive)
CCOC(=O)CN1N=C(/C=C/c2ccc(C)cc2)CCC1=O | 28.2 µM (inconclusive)
Cn1cc(C(=O)c2ccc(Cl)cc2Cl)cc1C(=O)O | 14.1 µM (inconclusive)
COc1ccc(Nc2ncc3nc(-c4cccs4)c(=O)n(Cc4cccc(OC)c4)c3n2)cc1 | 39.8 µM (inconclusive)
N#C/C(=C/N1CCOCC1)c1ccccc1 | 28.2 µM (inconclusive)
CCNc1ncc2nc(-c3cn(C)c4ccccc34)c(=O)n(Cc3ccc(F)cc3)c2n1 | 25.1 µM (inconclusive)
O=C(O)CCc1ccc(-c2ccccc2)[nH]1 | 3.16 µM (inconclusive)
Cc1nc2cnc(OCc3ccccc3)nc2n(Cc2ccc(F)cc2)c1=O | 10 µM (inconclusive)
COc1cccc(-c2cncnc2NCc2ccccc2OC)c1 | 0.631 µM (inconclusive)

From ChEMBL document CHEMBL1201862, “PubChem BioAssay data set” (2004)
